Numbers after ± are expanded uncertainties.
Test: molar heat capacity at constant pressure
Conditions: 101.33 kPa

CCCC(C)O (stereo unspecified) [pentan-2-ol]
Conditions | molar heat capacity at constant pressure [J/K/mol]
79.67 K, Glass | 63.18 ± 1.6
80.46 K, Glass | 63.33 ± 1.6
82.3 K, Glass | 64.14 ± 1.6
84.42 K, Glass | 67.58 ± 1.7
85.14 K, Glass | 66.47 ± 1.7
85.32 K, Glass | 67.84 ± 1.7
86.75 K, Glass | 68.64 ± 1.7
87.94 K, Glass | 69.06 ± 1.7
88.7 K, Glass | 70.03 ± 1.7
90.63 K, Glass | 71.1 ± 2.1
90.73 K, Glass | 70.94 ± 2.1
92.44 K, Glass | 69.53 ± 2.1
92.56 K, Glass | 72.26 ± 2.2
93.14 K, Glass | 65.87 ± 2
93.54 K, Glass | 72.61 ± 2.1
94.47 K, Glass | 69.28 ± 2.1
94.5 K, Glass | 73.35 ± 2.1
95.82 K, Glass | 74.84 ± 2.2
96.37 K, Glass | 74.28 ± 2.1
96.39 K, Glass | 69.82 ± 2.2
96.44 K, Glass | 74.4 ± 2.1
96.51 K, Glass | 73.84 ± 2.1
97.85 K, Glass | 74.9 ± 2.2
98.3 K, Glass | 70.93 ± 2.4
98.39 K, Glass | 75.87 ± 2.4
99.21 K, Glass | 76.42 ± 2.2
99.81 K, Glass | 76.63 ± 2.2
100.21 K, Glass | 72.31 ± 2.1
100.33 K, Glass | 77.32 ± 2.4
101.76 K, Glass | 76.89 ± 2.2
102.06 K, Glass | 77.9 ± 2.2
102.12 K, Glass | 72.26 ± 2.1
102.28 K, Glass | 78.12 ± 2.3
103.71 K, Glass | 77.71 ± 2.2
104.04 K, Glass | 72.83 ± 2.1
104.24 K, Glass | 78.97 ± 2.2
104.91 K, Glass | 79.34 ± 2.2
105.66 K, Glass | 79.19 ± 2.2
105.95 K, Glass | 74.19 ± 2.1
106.19 K, Glass | 80.14 ± 2.3
107.61 K, Glass | 80.61 ± 2.3
107.78 K, Glass | 81.22 ± 2.3
107.87 K, Glass | 75.02 ± 2.2
108.15 K, Glass | 81.83 ± 2.3
109.56 K, Glass | 81.6 ± 2.3
109.78 K, Glass | 76.24 ± 2.2
110.11 K, Glass | 83.03 ± 2.3
110.65 K, Glass | 82.72 ± 2.3
111.51 K, Glass | 82.56 ± 2.4
111.7 K, Glass | 77.13 ± 2.2
112.08 K, Glass | 84.03 ± 2.3
113.47 K, Glass | 83.55 ± 2.4
113.52 K, Glass | 84.21 ± 2.5
113.62 K, Glass | 77.89 ± 2.2
114.05 K, Glass | 85.23 ± 2.4
115.43 K, Glass | 84.36 ± 2.6
115.53 K, Glass | 78.83 ± 2.5
116.02 K, Glass | 86.13 ± 2.4
116.41 K, Glass | 85.6 ± 2.4
117.39 K, Glass | 85.19 ± 3
117.45 K, Glass | 79.39 ± 3
117.99 K, Glass | 86.99 ± 2.4
119.31 K, Glass | 86.83 ± 3.2
119.36 K, Glass | 85.74 ± 2.4
119.37 K, Glass | 80.16 ± 3.2
119.97 K, Glass | 87.03 ± 2.4
121.3 K, Glass | 80.85 ± 2.3
121.33 K, Glass | 86.41 ± 2.4
121.95 K, Glass | 88.36 ± 2.4
122.2 K, Glass | 88.5 ± 2.4
123.23 K, Glass | 82.6 ± 2.9
123.29 K, Glass | 88 ± 3
123.94 K, Glass | 89.95 ± 2.4
125.11 K, Glass | 91.4 ± 2.5
125.15 K, Glass | 84.47 ± 2.5
125.26 K, Glass | 89.98 ± 2.4
125.92 K, Glass | 92.63 ± 2.5
127.07 K, Glass | 88.92 ± 2.6
127.21 K, Glass | 95.14 ± 2.7
134.18 K, Liquid | 138.36 ± 3.4
134.47 K, Liquid | 145.14 ± 3.5
135.24 K, Liquid | 146.4 ± 3.5
136 K, Liquid | 146.52 ± 3.5
136.05 K, Liquid | 138.34 ± 3.4
136.39 K, Liquid | 145.03 ± 3.5
137.22 K, Liquid | 146.29 ± 3.5
137.97 K, Liquid | 138.35 ± 3.4
138.36 K, Liquid | 145.17 ± 3.5
138.84 K, Liquid | 146.59 ± 3.5
139.21 K, Liquid | 146.22 ± 3.5
139.9 K, Liquid | 138.69 ± 3.4
140.33 K, Liquid | 145.48 ± 3.5
141.2 K, Liquid | 146.34 ± 3.5
141.77 K, Liquid | 146.74 ± 3.5
141.83 K, Liquid | 139.02 ± 3.4
142.3 K, Liquid | 145.81 ± 3.5
143.19 K, Liquid | 146.48 ± 3.5
143.77 K, Liquid | 139.32 ± 3.4
144.73 K, Liquid | 146.91 ± 3.5
145.18 K, Liquid | 146.45 ± 3.5
147.18 K, Liquid | 146.59 ± 3.5
147.68 K, Liquid | 147.17 ± 3.5
149.17 K, Liquid | 146.66 ± 3.5
150.63 K, Liquid | 147.42 ± 3.5
151.16 K, Liquid | 146.74 ± 3.5
153.16 K, Liquid | 146.86 ± 3.5
153.58 K, Liquid | 147.65 ± 3.5
155.16 K, Liquid | 147.04 ± 3.5
156.54 K, Liquid | 148.06 ± 3.6
157.16 K, Liquid | 147.26 ± 3.5
159.16 K, Liquid | 147.41 ± 3.5
159.5 K, Liquid | 148.35 ± 3.6
161.15 K, Liquid | 147.59 ± 3.5
162.46 K, Liquid | 148.75 ± 3.6
163.15 K, Liquid | 147.87 ± 3.5
165.15 K, Liquid | 148.07 ± 3.6
165.42 K, Liquid | 149.14 ± 3.6
167.15 K, Liquid | 148.38 ± 3.6
168.38 K, Liquid | 149.64 ± 3.6
169.15 K, Liquid | 148.62 ± 3.6
171.15 K, Liquid | 148.98 ± 3.6
171.34 K, Liquid | 150.12 ± 3.6
173.15 K, Liquid | 149.17 ± 3.6
174.31 K, Liquid | 150.62 ± 3.6
175.15 K, Liquid | 149.61 ± 3.6
177.14 K, Liquid | 150.03 ± 3.6
177.27 K, Liquid | 151.24 ± 3.6
179.14 K, Liquid | 150.37 ± 3.6
180.22 K, Liquid | 151.84 ± 3.6
181.14 K, Liquid | 150.83 ± 3.6
183.13 K, Liquid | 151.22 ± 3.6
183.15 K, Liquid | 152.41 ± 3.6
185.13 K, Liquid | 151.66 ± 3.6
186.06 K, Liquid | 153.18 ± 3.7
187.13 K, Liquid | 152.22 ± 3.6
188.97 K, Liquid | 153.85 ± 3.7
189.12 K, Liquid | 152.69 ± 3.6
191.11 K, Liquid | 153.28 ± 3.7
191.86 K, Liquid | 154.61 ± 3.7
193.1 K, Liquid | 153.79 ± 3.7
194.73 K, Liquid | 155.46 ± 3.7
195.09 K, Liquid | 154.43 ± 3.7
197.08 K, Liquid | 155.04 ± 3.7
197.6 K, Liquid | 156.28 ± 3.7
199.07 K, Liquid | 155.64 ± 3.7
200.45 K, Liquid | 157.17 ± 3.7
201.05 K, Liquid | 156.37 ± 3.7
203.04 K, Liquid | 157.14 ± 3.7
203.28 K, Liquid | 158.12 ± 3.8
205.02 K, Liquid | 157.9 ± 3.8
206.11 K, Liquid | 159.16 ± 3.8
207 K, Liquid | 158.71 ± 3.8
208.92 K, Liquid | 160.23 ± 3.8
208.98 K, Liquid | 159.59 ± 3.8
210.96 K, Liquid | 160.43 ± 3.8
211.71 K, Liquid | 161.38 ± 3.8
212.93 K, Liquid | 161.43 ± 3.8
214.5 K, Liquid | 162.6 ± 3.8
214.9 K, Liquid | 162.36 ± 3.8
216.87 K, Liquid | 163.53 ± 3.9
217.27 K, Liquid | 163.98 ± 3.9
218.83 K, Liquid | 164.58 ± 3.9
220.03 K, Liquid | 165.38 ± 3.9
220.79 K, Liquid | 165.86 ± 3.9
222.74 K, Liquid | 167.19 ± 3.9
222.77 K, Liquid | 166.74 ± 3.9
224.69 K, Liquid | 168.3 ± 4
225.5 K, Liquid | 168.21 ± 4
226.64 K, Liquid | 169.58 ± 4
228.21 K, Liquid | 169.75 ± 4
228.58 K, Liquid | 170.97 ± 4
230.52 K, Liquid | 172.4 ± 4
230.92 K, Liquid | 171.38 ± 4
232.46 K, Liquid | 173.26 ± 4.1
233.61 K, Liquid | 173.02 ± 4
234.41 K, Liquid | 174.28 ± 4.1
236.28 K, Liquid | 174.82 ± 4.1
236.37 K, Liquid | 175.25 ± 4.1
238.35 K, Liquid | 176.25 ± 4.1
238.94 K, Liquid | 176.57 ± 4.1
240.33 K, Liquid | 177.32 ± 4.1
241.59 K, Liquid | 178.24 ± 4.2
242.31 K, Liquid | 178.65 ± 4.2
244.22 K, Liquid | 179.98 ± 4.2
244.29 K, Liquid | 180.19 ± 4.2
246.27 K, Liquid | 181.71 ± 4.2
246.84 K, Liquid | 181.91 ± 4.2
248.24 K, Liquid | 183.24 ± 4.3
249.45 K, Liquid | 183.85 ± 4.3
250.22 K, Liquid | 184.81 ± 4.3
252.04 K, Liquid | 185.96 ± 4.3
252.19 K, Liquid | 186.49 ± 4.3
254.17 K, Liquid | 187.53 ± 4.3
254.62 K, Liquid | 187.26 ± 4.3
256.15 K, Liquid | 189.21 ± 4.4
257.2 K, Liquid | 189.4 ± 4.4
258.13 K, Liquid | 190.9 ± 4.4
259.75 K, Liquid | 191.63 ± 4.4
260.11 K, Liquid | 192.75 ± 4.5
262.08 K, Liquid | 194.51 ± 4.5
262.3 K, Liquid | 193.87 ± 4.5
264.06 K, Liquid | 196.4 ± 4.5
264.83 K, Liquid | 196.18 ± 4.5
266.04 K, Liquid | 198.15 ± 4.6
267.34 K, Liquid | 198.56 ± 4.6
268.01 K, Liquid | 200.17 ± 4.6
269.84 K, Liquid | 201.01 ± 4.6
269.99 K, Liquid | 202.16 ± 4.6
271.96 K, Liquid | 204.25 ± 4.7
272.33 K, Liquid | 203.73 ± 4.7
273.94 K, Liquid | 206.27 ± 4.7
274.8 K, Liquid | 206.33 ± 4.7
275.91 K, Liquid | 208.32 ± 4.8
277.26 K, Liquid | 208.61 ± 4.8
277.88 K, Liquid | 210.5 ± 4.8
279.7 K, Liquid | 211.18 ± 4.8
279.86 K, Liquid | 212.62 ± 4.8
281.83 K, Liquid | 214.76 ± 4.9
282.13 K, Liquid | 213.77 ± 4.9
283.81 K, Liquid | 216.99 ± 4.9
284.54 K, Liquid | 216.55 ± 4.9
285.79 K, Liquid | 219.38 ± 5
286.94 K, Liquid | 219.25 ± 5
287.77 K, Liquid | 221.67 ± 5
289.33 K, Liquid | 222.07 ± 5
289.75 K, Liquid | 224.09 ± 5.1
291.7 K, Liquid | 224.87 ± 5.1
291.73 K, Liquid | 226.3 ± 5.1
293.71 K, Liquid | 228.63 ± 5.2
294.06 K, Liquid | 227.43 ± 5.2
295.69 K, Liquid | 231.18 ± 5.2
296.41 K, Liquid | 230.08 ± 5.2
297.66 K, Liquid | 233.65 ± 5.3
298.75 K, Liquid | 233 ± 5.3
299.65 K, Liquid | 235.81 ± 5.3
301.07 K, Liquid | 235.62 ± 5.3

From the NIST ThermoML archive (doi:10.1021/je060411g)
